From US9035048B2, “Tetrahydrotriazine compounds for treating diseases associated with AMPK activity” (POXEL, priority 2008, dated 2015)
“Also recorded” adds a separate entry of the source.

How the values were obtained:
[1] = test system: synaptopodin (G1D4); assay: Glomerular synaptopodin (G1D4) fraction in the kidney of ZDF rats; format: in vivo, rat; settings: ZDF fatty rats, age 19 weeks; for Glomerular synaptopodin (G1D4) fraction, Positive Area (%): 2 × 25 mg/kg/d p.o., mean ± SEM
Description: Synaptopodin (G1D4) was detected with a monoclonal mouse IgG antibody (#61094, Progen). For each rat, 40 glomeruli out of two consecutive sections were selected at random. The synaptopodin (G1D4) positive area in the mesangium was measured with the Ariol SL-50 automated microscope (Applied Imaging Int. Ltd.) scanning sections at X20 (scale x/y: 1 pixel=0.36×0.36 μm^2) and setting a circular measure field of 2400 μm^2 in the centre of the glomerulus. The positive labeled area of synaptopodin (G1D4) was calculated as percentage of tissue area in the measure field. For each animal, the mean out of 40 glomeruli was calculated. Statistical comparisons were performed by unpaired Mann-Whitney-test. Data are mean±SEM.
The antibody clone G1D4 recognized differentiated podocytes (glomerular visceral epithelial cells).

[2] = ob/ob and db/db mice, 8 day administration; cited from earlier work
[3] = test system: AMPK; assay: AMPK activation in hepatocyte cells; format: cell-based; settings: different doses, FIG. 1
Text: The AMPK activation in hepatocytes is given in the gel electrophoresis pictures. The supplemental diagram visualizes the degree of AMPK activation in hepatocytes quantitatively.

[4] = test system: human micro-vascular endothelial cells (HMEC-1); assay: ROS production in HMEC-1; format: cell-based
Description: (§1) The efficacy of 5,6-dihydro-4-dimethylamino-2-imino-6-methyl-1,3,5-triazine was tested if once administrated (50 mg/kg/day) to drinking water of fasted Wistar rats for at least 10 days. This approach was more physiological than subcutaneous injection at elevated dose. […] The effect was observed both in rat liver (FIG. 4) and in human micro-vascular endothelial cells (HMEC; Table 2).

[5] = test system: ROS production linked to the reverse electron flux through complex I; assay: ROS production in rat liver after oral administration; format: in vivo; settings: fasted Wistar rats, 50 mg/kg/day in drinking water for at least 10 days, succinate alone or with glutamate/malate
Description: as §1

[6] = test system: AMPK; assay: AMPK activation in muscle cells; format: cell-based; settings: different doses, FIG. 2

Compound	glomerular fraction of synaptopodin (effect of treatment in words) [1]	Glomerular synaptopodin (G1D4) fraction, Positive Area (%) [1] [%]	reduction of blood glucose [2] [%]	AMPK activation in hepatocytes [3]	ROS production, H2O2 ([4]; substrate GMS, additions: None)	ROS production, H2O2 ([4]; substrate GMS, additions: Rot + antimycin A (AA))	ROS production, H2O2 ([4]; substrate GMS, additions: Rotenone (Rot))	ROS production, H2O2 ([4]; substrate Glutamate + Malate (GM), additions: None)	ROS production, H2O2 ([4]; substrate Glutamate + Malate (GM), additions: Rot + antimycin A (AA))	ROS production, H2O2 ([4]; substrate Glutamate + Malate (GM), additions: Rotenone (Rot))	ROS production, H2O2 ([4]; substrate Succinate (S), additions: None)	ROS production, H2O2 ([4]; substrate Succinate (S), additions: Rot + antimycin A (AA))	ROS production, H2O2 ([4]; substrate Succinate (S), additions: Rotenone (Rot))	ROS production linked to the reverse electron flux through complex I [5]	AMPK activity in muscle cells [6]
CN(C)C(=N)NC(=N)N [Metformin, reference compound]	no effect	38 ± 4	–	–	–	–	–	–	–	–	–	–	–	–	–
NC(=O)c1ncn([C@@H]2O[C@H](CO)[C@@H](O)[C@H]2O)c1N [AICAR, 5-aminoimidazole-4-caboxamide-1beta-riboside]	–	–	35	–	–	–	–	–	–	–	–	–	–	–	–
CC1NC(=N)N=C(N(C)C)N1 (centres unmarked) [EMD008, 5,6-dihydro-4-dimethylamino-2-imino-6-methyl-1,3,5-triazine]	moderately increased	45 ± 3	–	significant activation of AMPK	15.7 ± 1.4 pmol/min/10^7 HMEC-1 cells	18.6 ± 1.3 pmol/min/10^7 HMEC-1 cells	6.9 ± 1.1 pmol/min/10^7 HMEC-1 cells	28.4 ± 2.2 pmol/min/10^7 HMEC-1 cells	51.4 ± 8.7 pmol/min/10^7 HMEC-1 cells	37.5 ± 1.5 pmol/min/10^7 HMEC-1 cells	14.5 ± 1.3 pmol/min/10^7 HMEC-1 cells	19.1 ± 3.2 pmol/min/10^7 HMEC-1 cells	11.4 ± 2.7 pmol/min/10^7 HMEC-1 cells	time-dependently inhibited the ROS production	significantly increased AMPK activity; also recorded: dose dependent and even stronger than metformin's effect
